Patent publication US20250118779A1, “BIPOLAR PARAMETHOXYPHENYL CONTAINING REDOX MOLECULES” (ExxonMobil Technology and Engineering Company, priority 2023, published 2025)
In brackets after ≈: the same amount, converted by molar mass.

What was measured:
[1] = Cyclic voltammetry screening (3-electrode beaker cell); format: physicochemical; settings: 0.1 M TBAPF6 in acetonitrile; for E1/2^0 (half-cell potential, arithmetic average of anode and cathode peaks): 5 mM redox species, Ag|10 mM AgNO3 reference; for E1/2^0 (half-cell potential, arithmetic average of anode and cathode peaks) / redox potential, E1/2: 100 mV/s; for redox potential, E1/2 / Redox activity of the bipolar molecule (in words): 5 mM; for redox potential, E1/2: vs Ag|10 mM AgNO3 in acetonitrile (−0.09 V vs Fc|Fc+); for Ecell^0 (cell voltage) / E^1/2, anolyte (negative) redox event / E^1/2, catholyte (positive) redox event: bipolar compound 5 mM; for E^1/2, anolyte (negative) redox event / E^1/2, catholyte (positive) redox event: vs Ag|10 mM AgNO3; for Redox activity of the bipolar molecule (in words): cyclic voltammogram
[2] = Room temperature solubility in acetonitrile; format: physicochemical; settings: moles per liter of solution; for solubility: organic solvent or mixture, read-out: MeCN solubility

## C(=C\c1ccccc1)/c1ccccc1 [trans-stilbene, reference compound]
[1]
  E1/2^0 (half-cell potential, arithmetic average of anode and cathode peaks): −2.571 V vs Ag|Ag^+
  redox potential, E1/2: −2.571 V
[2]
  solubility: 1070 mM (≈ 193 mg/mL)

## COc1ccc(OCCc2cccc(-c3ccccc3)c2)cc1 [Entry 3]
[1]
  Ecell^0 (cell voltage): 3.93 V
  E^1/2, anolyte (negative) redox event: −2.976 V
  E^1/2, catholyte (positive) redox event: +0.953 V

## Cc1cccc2ccccc12 [1-methylnaphthalene, reference compound]
[1]
  E1/2^0 (half-cell potential, arithmetic average of anode and cathode peaks): −2.909 V vs Ag|Ag^+
  redox potential, E1/2: −2.909 V
[2]; acetonitrile solvent
  MeCN solubility: miscible

## COc1ccc(OCCc2cccc3ccccc23)cc1 [Entry 1]
[1]
  Ecell^0 (cell voltage): 3.82 V
  E^1/2, anolyte (negative) redox event: −2.857 V
  E^1/2, catholyte (positive) redox event: +0.958 V

## COc1ccc(OCCc2ccc(/C=C/c3ccccc3)cc2)cc1 [Entry 6]
[1]
  Ecell^0 (cell voltage): 3.73 V
  E^1/2, anolyte (negative) redox event: −2.632 V
  E^1/2, catholyte (positive) redox event: +1.096 V

## COc1ccc(OCc2cccc3ccccc23)cc1 [Entry 2]
[1]
  E^1/2, catholyte (positive) redox event: +0.981 V
  Redox activity of the bipolar molecule (in words): non-redox active molecule

## c1ccc(-c2ccccc2)cc1 [biphenyl, reference compound]
[1]
  E1/2^0 (half-cell potential, arithmetic average of anode and cathode peaks): −2.987 V vs Ag|Ag^+
  redox potential, E1/2: −2.987 V
[2]
  solubility: 1730 mM (≈ 267 mg/mL)

## COc1ccc(OCc2ccccc2-c2ccccc2)cc1 [Entry 5]
[1]
  E^1/2, catholyte (positive) redox event: +0.985 V
  Redox activity of the bipolar molecule (in words): non-redox active molecule

## COc1ccc(OCCc2ccccc2-c2ccccc2)cc1 [Entry 4]
[1]
  Ecell^0 (cell voltage): 3.82 V
  E^1/2, anolyte (negative) redox event: −1.217 V
  E^1/2, catholyte (positive) redox event: +0.934 V

## COc1ccc(OC)cc1 [p-dimethoxybenzene, reference compound]
[1]
  E1/2^0 (half-cell potential, arithmetic average of anode and cathode peaks): +0.967 V vs Ag|Ag^+
  redox potential, E1/2: +0.967 V
[2]
  solubility: 600 mM (≈ 82.9 mg/mL)

## COc1ccc(CCOc2ccc(/C=C/c3ccccc3)cc2)cc1 [Entry 7]
[1]
  E^1/2, anolyte (negative) redox event: −2.665 V
  Redox activity of the bipolar molecule (in words): non-redox active molecule
